Assay results taken from patent publication US6084081A, “Lewis X derivatives” (Daikin Industries, Ltd., priority 1996, dated 2000).

How the values were obtained:
P-selectin = molecular target: T1, P-selectin (Homo sapiens, UniProt P16109); settings: relative to sugar chain (3); cited from earlier work
T1 sequence (P16109 42-830): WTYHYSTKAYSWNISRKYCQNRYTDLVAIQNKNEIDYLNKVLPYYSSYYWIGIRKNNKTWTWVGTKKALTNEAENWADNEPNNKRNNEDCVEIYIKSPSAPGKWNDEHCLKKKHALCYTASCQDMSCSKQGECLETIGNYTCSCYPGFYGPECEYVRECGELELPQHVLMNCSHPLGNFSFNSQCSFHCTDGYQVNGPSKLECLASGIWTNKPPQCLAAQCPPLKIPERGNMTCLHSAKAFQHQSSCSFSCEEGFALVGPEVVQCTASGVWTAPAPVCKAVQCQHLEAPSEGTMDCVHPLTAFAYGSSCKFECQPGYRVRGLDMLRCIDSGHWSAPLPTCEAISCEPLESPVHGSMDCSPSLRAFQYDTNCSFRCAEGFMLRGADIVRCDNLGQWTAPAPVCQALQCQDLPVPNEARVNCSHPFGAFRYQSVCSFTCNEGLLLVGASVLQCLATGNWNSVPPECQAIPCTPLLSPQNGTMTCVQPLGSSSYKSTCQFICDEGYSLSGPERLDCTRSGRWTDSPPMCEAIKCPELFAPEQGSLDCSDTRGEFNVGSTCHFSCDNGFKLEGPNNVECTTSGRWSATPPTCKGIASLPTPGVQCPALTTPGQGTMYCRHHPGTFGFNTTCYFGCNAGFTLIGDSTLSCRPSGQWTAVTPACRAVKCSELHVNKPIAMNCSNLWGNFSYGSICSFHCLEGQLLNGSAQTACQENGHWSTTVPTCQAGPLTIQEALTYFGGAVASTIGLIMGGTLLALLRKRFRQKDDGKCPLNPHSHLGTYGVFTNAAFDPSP

[1] = system: acute pulmonary inflammation induced using a cobra venom factor; settings: rats, Mulligan et al., Nature 364, 149 (1993); cited from earlier work
α-fucosidase = molecular target: T2, α-fucosidase (Bos taurus, UniProt Q2KIM0); assay: Metabolic stability test: substrate decomposition reaction by α-fucosidase (remaining substrate by TLC); type: in vitro ADME
T2 construct: purchased Wako Pure Chemical Industries, Ltd
T2 sequence (Q2KIM0 23-468): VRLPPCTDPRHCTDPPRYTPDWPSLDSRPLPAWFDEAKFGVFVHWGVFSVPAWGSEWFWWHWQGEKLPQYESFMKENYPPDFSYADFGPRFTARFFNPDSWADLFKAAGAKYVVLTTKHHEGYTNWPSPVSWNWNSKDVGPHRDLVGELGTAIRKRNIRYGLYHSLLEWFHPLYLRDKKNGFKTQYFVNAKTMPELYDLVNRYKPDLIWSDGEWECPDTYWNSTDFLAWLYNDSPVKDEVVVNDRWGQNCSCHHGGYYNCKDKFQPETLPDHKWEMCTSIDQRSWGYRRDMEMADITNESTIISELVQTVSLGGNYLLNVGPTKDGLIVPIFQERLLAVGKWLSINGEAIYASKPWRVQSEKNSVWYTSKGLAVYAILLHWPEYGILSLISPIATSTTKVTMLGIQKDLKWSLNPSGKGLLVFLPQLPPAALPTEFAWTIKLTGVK
Method: The TLC plate was developed until the reaction solution front moved 2 cm (developing solvent; n-butanol:acetic acid:water=8:5:4). After immersion in phosphomolybdic acid.phosphoric acid.sulfonic acid mixed aqueous solution, the plate was heated to develop colors and the amount of the remaining substrate was measured.

Compound: 1-deoxy sialyl Lewis X [sugar chain (4)]
- inhibitory activity against P-selectin, times as potent as sugar chain (3) (P-selectin): about 20 times

Compound: sialyl Lewis X sugar chain [sialyl Lewis X sugar chain (3)]
- effect on acute pulmonary inflammation (in words) [1]: ameliorates acute pulmonary inflammation

Compound: CCCCCCCCCCCCCC=CC(O)C(COC1OC(CO)C(OC2OC(CO)C(O)C(OC3OC(CF)C(OC4OC(CO)C(O)C(OC5(C(=O)O)CC(O)C(NC(C)=O)C(C(O)C(O)CO)O5)C4O)C(OC4OC(C)C(O)C(O)C4O)C3NC(C)=O)C2O)C(O)C1O)NC(=O)CCCCCCCCCCCCCCCCC [Compound 24, O-(5-Acetamide-3,5-dideoxy-D-glycero-α-D-galacto-2-nonulopyranosylonic acid)-(2→3)-O-β-D-glucopyranosyl-(1→4)-O-[α-L-fucopyranosyl-(1→3)]-O-(2-acetamide-2,6-dideoxy-6-fluoro-β-D-galactopyranosyl)-(1→3)-O-β-D-galactopyranosyl)-(1→4)-β-D-glucopyranosyl-(1→1)(2S, 3R, 4E)-2-octadecaneamide-4-octadecene-1,3-diol]
- stability against decomposition by α-fucosidase (in words) (α-fucosidase; in the presence of α-fucosidase): more strongly resists the decomposition by α-fucosidase than a natural Ganglioside
- Remaining Syalyl Lewis X (%) (α-fucosidase; α-fucosidase, time 0 min): 100%
